# Test results as given in ChEMBL document CHEMBL1126241, “Synthesis, characterization, and Ca2+ antagonistic activity of diltiazem metabolites” (J Med Chem, 1992).
# System: Cricetinae gen. sp.
# Assay: Concentration (10 e-6 M) required to block [Ca2+]-induced contraction of K+-depolarized hamster aorta
# Assay type: functional
row,IC50 [µM],Compound
1,127,CNCCN1C(=O)C(O)C(c2ccc(O)cc2)Sc2ccccc21 (configuration not stated)
2,112,CNCCN1C(=O)C(OC(C)=O)C(c2ccc(O)cc2)Sc2ccccc21 (configuration not stated)
3,3.27,CNCCN1C(=O)C(OC(C)=O)C(c2ccc(OC)cc2)Sc2ccccc21 (configuration not stated)
4,0.98,COc1ccc([C@@H]2Sc3ccccc3N(CCN(C)C)C(=O)[C@@H]2OC(C)=O)cc1 [DILTIAZEM]
5,40.4,CC(=O)OC1C(=O)N(CCN(C)C)c2ccccc2SC1c1ccc(O)cc1 (configuration not stated)
6,20.2,CNCCN1C(=O)C(O)C(c2ccc(OC)cc2)Sc2ccccc21 (configuration not stated)
7,45.5,CN(C)CCN1C(=O)C(O)C(c2ccc(O)cc2)Sc2ccccc21 (configuration not stated)
